Measurements published in patent US9364494B2, “Somatostatin 2 receptor (sst2), deoxycytidine kinase (dck) and uridine monophosphate kinase (umk) pancreatic gene therapy” (Institut National de la Sante et de la Recherche Medicale …, priority 2007, dated 2016).

Columns and labels:
[1] = tested on: PC1.0 cells; set-up: species or system Syrian golden hamsters; details: hamster, in vivo, ip, 120 mg/kg/day
[2] = tested on: PC1.0 cells; format: in vivo; details: day 15 post-cell implantation; 25 to 50 μg expression vector intra-tumoral; gemcitabine i.p. 80 to 120 mg/kg/day every three days

## Cl.Nc1ccn([C@@H]2O[C@H](CO)[C@@H](O)C2(F)F)c(=O)n1 [Gemcitabine, No DNA, 2′-deoxy-2′,2′-difluorocytidine monohydrochloride]
[1]
  tumor evolution on day 15: only slow down the tumor progression
[2]
  Tumor progression (percentage): +150 to 378 percentage
